Experimental data taken from BigSolDB 2.1.

C=CC(=O)N1CCC[C@@H](n2nc(-c3ccc(Oc4ccccc4)cc3)c3c(N)ncnc32)C1
solubility (mole fraction)
Conditions | 298.15 K | 303.15 K | 308.15 K | 313.15 K | 323.15 K
in transcutol | 0.0267 | 0.0288 | 0.0318 | 0.0341 | 0.0392
in water | 1.43e-07 | 2.21e-07 | 3.11e-07 | 4.13e-07 | 7.69e-07
